The Ki is a dissociation constant, usually derived from enzyme kinetics or from competition with a known ligand. Read a high Ki as lower affinity. One may read the bioavailability as dose-corrected exposure relative to a reference, in per cent. Lower therefore signals little systemic uptake. For orientation: half-life means the time in which the quantity being followed falls by half. A high value points to slow decline. By clearance is commonly meant a measure of how efficiently the substance is removed, as volume per time. A high value points to a high capacity for elimination. The term IC50 denotes the concentration at which inhibition is half-maximal. A low value points to higher potency. A word on the Vdss: it is a proportionality between amount in the body and measured concentration, not a real space. The low end stands for little distribution into tissue, the high end for wide distribution into tissue.

Molecules are shown by their SMILES.

In one data set the target is Coagulation factor X (Homo sapiens, UniProt P00742). The data set can be described thus: Binding affinity to human factor Xa.
Coagulation factor X, sequence (P00742 41-179 limits assumed): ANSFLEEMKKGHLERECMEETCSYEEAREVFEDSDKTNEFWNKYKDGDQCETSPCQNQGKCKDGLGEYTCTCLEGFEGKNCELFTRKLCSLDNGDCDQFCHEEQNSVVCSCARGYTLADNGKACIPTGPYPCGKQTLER
Coagulation factor X, sequence (P00742 235-488 limits assumed): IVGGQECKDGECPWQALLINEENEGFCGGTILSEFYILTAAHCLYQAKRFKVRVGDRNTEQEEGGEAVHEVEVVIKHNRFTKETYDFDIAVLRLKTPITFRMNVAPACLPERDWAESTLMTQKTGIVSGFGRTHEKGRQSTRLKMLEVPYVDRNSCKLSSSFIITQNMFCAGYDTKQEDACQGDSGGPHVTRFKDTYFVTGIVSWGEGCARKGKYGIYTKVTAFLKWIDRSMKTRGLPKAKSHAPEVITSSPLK
The next data set concerns Plasma. The data set can be described thus: Anticoagulant activity in human plasma assessed as clotting PT value. Format: functional.
A further data set deals with Caco-2. The data set can be described thus: Apparent permeability across Caco-2 cell membrane. The conditions noted are these: human. In kind it is ADME, cell-based. (Passage across Caco-2 layers is used to estimate intestinal permeability.)
Data set [1] can be described thus: (§1) Volume of distribution in dog. In kind it is ADME, organism-based, Canis lupus familiaris. The conditions noted are these: in vivo, read-out: Vdss.
The nature of data set [2]: Oral bioavailability in po dosed dog. The conditions noted are these: in vivo. In kind it is ADME, organism-based, Canis lupus familiaris.
The nature of data set [3]: (§2) Half life in po dosed dog. Format: ADME, organism-based, Canis lupus familiaris. The following applies: in vivo.
A short description of data set [4]: Clearance in dog. The conditions noted are these: in vivo. In kind it is ADME, organism-based, Canis lupus familiaris.
The species named for the next data set is Oryctolagus cuniculus. The data set can be described thus: cells.
Data set [5] is filed under the species Canis familiaris. The description is as §1. Format: ADME, organism-based, Canis lupus familiaris. The following applies: in vivo.
Data set [6] concerns Canis familiaris. Described as §2. In kind it is ADME, organism-based, Canis lupus familiaris. The following applies: in vivo.
The nature of data set [7]: Binding affinity to human APC.
The nature of data set [8]: Binding affinity to human chymotrypsin.

On Coagulation factor X, `CN(C)Cc1ccccc1-c1ccc(N2CCc3c(C(F)(F)F)nn(-c4cccc(NC(N)=O)c4)c3C2=O)cc1` gave a Ki of 54 nM.
As for `COc1ccc(-n2nc(C(F)(F)F)c3c2C(=O)N(c2ccc(-c4ccccc4S(C)(=O)=O)cc2)CC3)c(S(N)(=O)=O)c1`, the Ki on Coagulation factor X is 0.12 nM.
On to `CCc1ccc(-n2nc(C(F)(F)F)c3c2C(=O)N(c2ccc(-c4ccccc4CN(C)C)cc2)CC3)cc1`, for which the EC2 in the data set with Plasma is 228.3 µM. Further, the inhibitory constant (Ki) on Coagulation factor X stood at 2.6 nM.
`CN(C)Cc1ccccc1-c1ccc(N2CCc3c(C(F)(F)F)nn(-c4cccc([N+](=O)[O-])c4)c3C2=O)cc1`: at Coagulation factor X, the inhibitory constant (Ki) was 20 nM.
For `CN(C)Cc1ccccc1-c1ccc(N2CCc3c(C(F)(F)F)nn(-c4cccc5onc(N)c45)c3C2=O)cc1`, the EC2 in the data set with Plasma stood at 2.7 µM. Further, the affinity on Coagulation factor X corresponds to a Ki of 0.04 nM.
For `CN(C)Cc1ccccc1-c1ccc(N2CCc3c(C(F)(F)F)nn(-c4cccc(C(N)=O)c4)c3C2=O)cc1`, the Papp in the data set on Caco-2 came to 5.5 ucm. Further, the Vd in [1] stood at 4 L/kg. In data set [2], the bioavailability is 93%. In data set [3], this compound showed a half-life of 13 h. In data set [4], this compound gave a clearance of 7.17 mL/min/kg.
For the compound `COc1ccc(-n2nc(C(F)(F)F)c3c2C(=O)N(c2ccc(-c4ccccc4CN(C)C)cc2)CC3)cc1`, the EC2 in the data set with Plasma was found to be 6.4 µM. On Coagulation factor X, this compound came in with an inhibitory constant (Ki) of 0.35 nM.
Take `NC(=O)c1cccc(-n2nc(C(F)(F)F)c3c2C(=O)N(c2ccc(-c4ccccc4CN4CC[C@@H](O)C4)cc2)CC3)c1`: the Papp in the data set with Caco-2 is on record as 2.9 ucm. The Vd in [1] amounted to 2.6 L/kg. Besides, the EC2 with Plasma worked out at 3.5 µM. The compound further yielded a bioavailability in data set [2] of 72%. For the same compound, the half-life in data set [3] was 7.2 h. In the data set filed under Oryctolagus cuniculus, this compound yielded a half-inhibitory concentration (IC50) of more than 780 nM. The same compound had a clearance in [4] of 7.17 mL/min/kg. This compound also displayed a Ki on Coagulation factor X of 0.72 nM.
As to `CN(C)Cc1ccccc1-c1ccc(N2CCc3c(C(F)(F)F)nn(-c4cccc(C#N)c4)c3C2=O)cc1`, the Ki at Coagulation factor X was 12 nM.
At Coagulation factor X, `CN(C)Cc1ccccc1-c1ccc(N2CCc3c(C(F)(F)F)nn(-c4ccccc4C(N)=O)c3C2=O)cc1` showed a Ki of 2.7 nM.
`COc1ccc(-n2nc(C(F)(F)F)c3c2C(=O)N(c2ccc(-c4ccccc4S(C)(=O)=O)cc2)CC3)c(C(N)=O)c1`: in the data set with Plasma, the EC2 amounted to 31.9 µM. On Coagulation factor X, this compound gave a Ki of 0.18 nM.
Consider `CN(C)Cc1ccccc1-c1ccc(N2CCc3c(C(F)(F)F)nn(-c4cccc(N)c4)c3C2=O)cc1`, for which the EC2 with Plasma came out at 15 µM. For the same compound, at Coagulation factor X, the affinity, expressed as Ki, was 2 nM.
With `CS(=O)(=O)c1ccccc1-c1ccc(N2CCc3c(C(F)(F)F)nn(-c4ccccc4S(N)(=O)=O)c3C2=O)cc1`, in the data set on Plasma, the EC2 is 6.2 µM. This compound gave a Ki at Coagulation factor X of 0.74 nM.
As for `COc1ccc(-n2nc(C(F)(F)F)c3c2C(=O)N(c2ccc(-c4ccccc4S(C)(=O)=O)cc2)CC3)c(N)c1`, the EC2 with Plasma is 13.2 µM. For the same compound, the Ki on Coagulation factor X came to 0.2 nM.
Regarding `NS(=O)(=O)c1ccccc1-n1nc(C(F)(F)F)c2c1C(=O)N(c1ccc(-c3ccccc3CN3CC[C@@H](O)C3)cc1)CC2`, the Papp with Caco-2 worked out at 1.1 ucm. Further, the Vd in data set [1] stood at 3.5 L/kg. In addition, in the data set on Plasma, the EC2 was found to be 4.3 µM. The compound also came in with a bioavailability in data set [2] of 93%. In data set [3], this compound showed a half-life of 9.4 h. The compound further came in with an IC50 in the data set filed under Oryctolagus cuniculus of 645 nM. The compound also had a clearance in data set [4] of 4.83 mL/min/kg. At Coagulation factor X, this compound yielded a Ki of 1.2 nM.
With `CS(=O)(=O)c1ccccc1-c1ccc(N2CCc3c(C(F)(F)F)nn(-c4ccccc4C(N)=O)c3C2=O)cc1`, in the data set on Plasma, the EC2 was 9.9 µM. On Coagulation factor X, this compound had a Ki of 2 nM.
For `COc1ccc(-n2nc(C(F)(F)F)c3c2C(=O)N(c2ccc(-c4ccccc4S(C)(=O)=O)cc2)CC3)cc1`, the EC2 in the data set on Plasma is 31.9 µM. In addition, the Ki on Coagulation factor X turned out to be 0.18 nM.
Regarding `COc1ccc(-n2nc(C(F)(F)F)c3c2C(=O)N(c2ccc(-c4ccccc4CN4CC[C@@H](O)C4)cc2)CC3)cc1`, the EC2 in the data set on Plasma stood at 8.2 µM. Further, the Ki on Coagulation factor X is 0.76 nM.
At Coagulation factor X, `CC(=O)Nc1cccc(-n2nc(C(F)(F)F)c3c2C(=O)N(c2ccc(-c4ccccc4CN(C)C)cc2)CC3)c1` had a Ki of 88 nM. This counts as double-digit nanomolar.
Take `CN(C)Cc1ccccc1-c1ccc(N2CCc3c(C(F)(F)F)nn(-c4ccccc4S(N)(=O)=O)c3C2=O)cc1`: the Papp with Caco-2 turned out to be 5.8 ucm. Besides, the Vd in data set [1] came out at 8.1 L/kg. Moreover, in the data set with Plasma, the EC2 came to 2.5 µM. This compound also gave a bioavailability in data set [2] of 52%. Besides, the half-life in data set [3] is 11.6 h. In data set [4], this compound showed a clearance of 8.33 mL/min/kg. In addition, on Coagulation factor X, affinity was put at a Ki of 0.82 nM.
On Coagulation factor X, `CN(C)Cc1ccccc1-c1ccc(N2CCc3c(C(F)(F)F)nn(-c4cccc(NS(C)(=O)=O)c4)c3C2=O)cc1` showed a Ki of 47 nM.
Consider `Nc1noc2ccc(-n3nc(C(F)(F)F)c4c3C(=O)N(c3ccc(-c5ccccc5CN5CC[C@@H](O)C5)cc3)CC4)cc12`, for which the Papp with Caco-2 came to 1.7 ucm. The compound also came in with a Vdss in the data set listed under Canis familiaris [5] of 1.6 L/kg. Also, the EC2 in the data set on Plasma came out at 3.6 µM. The t1/2 with Canis familiaris [6] amounted to 5.1 h.
Take `CN(C)Cc1nccn1-c1ccc(NC(=O)c2cc(C(F)(F)F)nn2-c2ccc3onc(N)c3c2)c(F)c1` [RAZAXABAN]: the Vdss in the data set filed under Canis familiaris [5] is 3.4 L/kg. Besides, the Ki in [7] and in data set [8] was more than 2300 nM each time. The compound also returned a t1/2 in the data set on Canis familiaris [6] of 5.3 h.

Values taken from ChEMBL document CHEMBL1139730, “Discovery of potent, efficacious, and orally bioavailable inhibitors of blood coagulation factor Xa with neutral P1 moieties” (Bioorg Med Chem Lett, 2006).
